Results on one molecule are retold here after publication PMC6934184, “Selective DNA-PKcs inhibition extends the therapeutic index of localized radiotherapy and chemotherapy” (The Journal of Clinical Investigation, 2019).

The experiment deals with T1, MERTK (cMER) (Homo sapiens, UniProt Q12866).
T1 construct: purchased Thermo Fisher Scientific (Life Technologies) SelectScreen
Kind of experiment: SelectScreen Z'LYTE. Format: biochemical. In outline:
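Percent values come from Thermo SelectScreen profiling of NU5455, combining activity and binding assays. CSF1R was run in Z'LYTE format at Km app ATP, and CAMK1 in Adapta format with ATP listed at 10.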

T1 sequence (Q12866 21-999): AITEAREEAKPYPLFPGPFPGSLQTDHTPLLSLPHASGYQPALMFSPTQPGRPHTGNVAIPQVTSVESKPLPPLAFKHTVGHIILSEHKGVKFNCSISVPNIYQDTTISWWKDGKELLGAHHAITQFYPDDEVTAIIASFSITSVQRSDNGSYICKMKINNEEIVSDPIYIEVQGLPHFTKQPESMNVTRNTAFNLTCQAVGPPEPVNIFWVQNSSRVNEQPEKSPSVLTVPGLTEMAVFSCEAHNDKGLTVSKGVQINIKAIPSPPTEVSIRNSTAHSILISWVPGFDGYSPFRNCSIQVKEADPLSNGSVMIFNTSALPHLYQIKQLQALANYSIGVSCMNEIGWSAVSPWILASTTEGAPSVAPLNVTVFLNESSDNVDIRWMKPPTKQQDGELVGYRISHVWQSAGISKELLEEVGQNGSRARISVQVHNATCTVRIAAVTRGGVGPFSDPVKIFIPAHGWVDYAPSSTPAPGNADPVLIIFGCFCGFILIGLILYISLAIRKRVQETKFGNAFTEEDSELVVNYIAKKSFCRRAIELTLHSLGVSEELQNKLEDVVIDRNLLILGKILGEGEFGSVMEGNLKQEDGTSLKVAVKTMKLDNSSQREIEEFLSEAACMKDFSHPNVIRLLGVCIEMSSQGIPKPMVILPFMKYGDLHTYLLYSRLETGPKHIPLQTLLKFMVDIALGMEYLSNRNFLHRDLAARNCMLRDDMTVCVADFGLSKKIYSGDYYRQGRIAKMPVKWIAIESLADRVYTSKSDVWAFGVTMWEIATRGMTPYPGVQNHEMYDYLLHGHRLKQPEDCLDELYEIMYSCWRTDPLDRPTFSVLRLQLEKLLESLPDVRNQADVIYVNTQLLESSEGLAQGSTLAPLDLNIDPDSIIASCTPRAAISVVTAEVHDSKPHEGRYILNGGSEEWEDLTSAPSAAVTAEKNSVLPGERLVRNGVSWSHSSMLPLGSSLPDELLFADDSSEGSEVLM

For orientation: inhibition means how much of the control response was suppressed. A higher inhibition goes with a strong effect. For the molecule `CN(C(=O)CN1CCOCC1)c1ccc2sc3c(-c4cccc5c(=O)cc(N6CC7CCC(C6)O7)oc45)cccc3c2c1` [NU5455], the inhibition at 1 µM came out at 8.3%.
